Biological target: VEGFr2 (Rattus norvegicus, UniProt O08775)
Experiment: PET imaging of ^18F-ZD-G2 versus ^18FDG in MCT rat model of PAH
Format: in vivo
Conditions: early stage of PAH (MCT-10 days and MCT-2 weeks); PET at 60 minutes after injection
Procedure: Images of ^18F-ZD-G2 probe and ^18FDG were compared. Rats exposed to monocrotaline were used to develop pulmonary arterial hypertension rat model (MCT), while healthier rats were used as a control group.
Images of ^18F-ZD-G2 probe and ^18FDG were compared.
A PET imaging study was further performed with ^18F-ZD-G2 using MCT rat model as previous described. Healthy rats were used as control. Clinically used ^18FDG PET imaging was also performed on both groups of […] following the same imaging protocol for comparison.

Sequence of VEGFr2 (O08775 20-1343): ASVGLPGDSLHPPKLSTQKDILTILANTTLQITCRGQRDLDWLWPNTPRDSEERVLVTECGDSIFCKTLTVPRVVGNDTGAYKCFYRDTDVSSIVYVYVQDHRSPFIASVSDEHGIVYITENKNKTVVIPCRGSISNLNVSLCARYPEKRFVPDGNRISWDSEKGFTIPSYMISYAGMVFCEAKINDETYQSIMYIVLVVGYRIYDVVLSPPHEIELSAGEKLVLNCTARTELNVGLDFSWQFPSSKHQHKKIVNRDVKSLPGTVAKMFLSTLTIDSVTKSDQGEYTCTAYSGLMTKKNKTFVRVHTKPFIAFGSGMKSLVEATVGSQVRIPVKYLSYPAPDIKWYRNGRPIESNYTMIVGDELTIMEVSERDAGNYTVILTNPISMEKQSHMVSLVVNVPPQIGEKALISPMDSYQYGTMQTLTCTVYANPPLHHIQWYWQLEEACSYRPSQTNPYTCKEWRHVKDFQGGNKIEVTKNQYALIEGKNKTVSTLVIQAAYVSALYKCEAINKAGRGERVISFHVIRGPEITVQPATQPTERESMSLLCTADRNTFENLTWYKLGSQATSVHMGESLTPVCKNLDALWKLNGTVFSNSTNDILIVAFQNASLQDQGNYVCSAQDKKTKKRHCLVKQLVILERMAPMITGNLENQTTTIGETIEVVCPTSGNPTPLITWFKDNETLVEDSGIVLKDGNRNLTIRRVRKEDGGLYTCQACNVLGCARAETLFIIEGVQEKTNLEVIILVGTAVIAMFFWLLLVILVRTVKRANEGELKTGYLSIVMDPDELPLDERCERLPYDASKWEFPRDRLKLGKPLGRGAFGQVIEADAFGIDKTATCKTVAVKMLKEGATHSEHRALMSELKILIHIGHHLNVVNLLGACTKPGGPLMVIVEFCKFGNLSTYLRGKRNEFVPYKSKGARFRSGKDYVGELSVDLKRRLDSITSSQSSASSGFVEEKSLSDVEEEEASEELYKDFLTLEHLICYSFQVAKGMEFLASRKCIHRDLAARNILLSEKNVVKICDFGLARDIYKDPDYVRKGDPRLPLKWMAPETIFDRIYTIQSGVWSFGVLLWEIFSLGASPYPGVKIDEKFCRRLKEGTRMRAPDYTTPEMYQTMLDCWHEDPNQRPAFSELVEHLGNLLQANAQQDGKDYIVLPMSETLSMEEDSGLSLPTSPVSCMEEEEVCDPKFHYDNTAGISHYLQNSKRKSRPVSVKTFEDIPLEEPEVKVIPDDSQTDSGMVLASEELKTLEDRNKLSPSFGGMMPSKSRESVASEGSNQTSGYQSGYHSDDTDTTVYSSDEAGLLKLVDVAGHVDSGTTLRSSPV

## OC[C@H]1OC(O)[C@H]([18F])[C@@H](O)[C@@H]1O (stereo partly shown) [^18FDG]
  Lung uptake, MCT versus control: no obvious difference

Reference: patent US20260355361A1, “METHODS FOR DIAGNOSIS AND TREATMENT OF PULMONARY HYPERTENSION” (THE METHODIST HOSPITAL, priority 2022, published 2026)
